From patent publication US20040266794A1, “Pramipexole for the reduction of excessive food intake for children” (Boehringer Ingelheim International GmbH, priority 2003, published 2004)
Where two headings read alike, the source gives them in different places.

Key:
mice (Strain: C57BL/6) [1] = test system: mice (Strain: C57BL/6)
Method: (§1) 10 mice (Strain: C57BL/6) were deprived of food for 24 hours while being given free access to drinking water.

mice (Strain: C57BL/6) [2] = conditions: C57BL/6 mice fasted 24 hours; single application given on successive days, 2.5 mg/kg of body weight s.c.; food consumption over 4 days; vs physiological saline; FIG. 1
Method: Test method by single administration:
as §1
20 minutes before the end of the fasting period pramipexol was administered (2.5 mg/kg of body weight s.c.). The control group, also 10 mice, were given physiological saline solution, the solvent used for pramipexol. Then the animals were offered food and the food consumption over 4 days in 30 minute cycles was measured.

## CCCN[C@H]1CCc2nc(N)sc2C1 [Pramipexol]
Mice (Strain: C57BL/6) [1]; C57BL/6 mice fasted 24 hours, continuous administration by alzet Mini-osmotic pump s.c., 2.5 mg of pramipexol/24 hours, measured for 4 days, vs physiological saline, FIG. 1
  food intake: permanent, statistically highly significant inhibition in food intake
Mice (Strain: C57BL/6) [1]; C57BL/6 mice, continuous (long term) administration by osmotic pump s.c., measured daily over 22 days, administration ending after 14 days, FIG. 2
  change in weight: permanent weight reduction was observed which was statistically highly significant even after the pramipexol treatment had ended
Mice (Strain: C57BL/6) [2]
  food intake: did not significantly reduce food intake
